In patent publication US10913757B2, “Hydroxycinnamic derivatives, methods and uses thereof” (UNIVERSIDADE DO PORTO, priority 2016, dated 2021):

Test system: rat liver mitochondria (RLM) membranes
Experiment: RLM lipid peroxidation, TBARS assay (FeSO4/H2O2/ascorbate)
Format: biochemical
Details: 5 μM pre-incubation, FIG. 4A
Method: In an embodiment, and as an example, AntiOxCINs antioxidant performance, on the protection of lipid peroxidation of RLM membranes was determined. Two different oxidative stressor agents, FeSO4/H2O2/ascorbate and ADP/FeSO4, and two end-points, TBARS production and oxygen-consumption, respectively, have been used. MitoQ was used as reference (FIGS. 4 and 5).
In an embodiment, the evaluation of AntiOxCINs functional mitochondrial toxicity profile was performed in rat liver mitochondria (RLM). RLM were prepared by tissue homogenization followed by differential centrifugations in ice-cold buffer containing 250 mM sucrose, 10 mM HEPES (pH 7.4), 1 mM EGTA, and 0.1% fat-free bovine serum albumin. […] The protein concentration was determined by the biuret assay using BSA as a standard.
In an embodiment, the effect of AntiOxCINs on RLM lipid peroxidation was measured by thiobarbituric acid reactive species (TBARS) assay as follows: RLM (2 mg protein/ml) were incubated in 0.8 mL medium containing 100 mM KCl, 10 mM Tris-HCl and pH 7.6, at 37° C., supplemented with 5 mM glutamate/2.5 mM malate as substrate. […] The fluorescence of aliquots (250 μL) of the organic layer was analyzed in a plate reader (λEx=515 nm; λEm=553 nm) for TBARS. […] Data are means±SEM of three independent experiments and are expressed as % of control (control=100%).

CS(=O)(=O)[O-].O=C(/C=C/c1ccc(O)c(O)c1)NCCCCCC[P+](c1ccccc1)(c1ccccc1)c1ccccc1 [AntiOxCIN2, (E)-(6-(3-(3,4-dihydroxyphenyl)prop-2-enamido)hexyl)triphenylphosphonium methanesulfonate]
prevention of mitochondria lipid peroxidation (TBARS levels): most effective
